Patent US11344517B2, “Injectable supersaturated acetaminophen solution for spinal administration” (priority 2012, dated 2022)
Values after ≈ are worked out from the molar mass of the structure shown. Values joined by “and” are separate entries in the source; they are usually repeats but may differ in a detail not shown here. Identical values can stand only once.

Key:
[1] = test system: post-surgical pain in rats; assay type: in vivo; conditions: IT chloroprocaine 3% 20 μL, after 4 hours
[2] = test system: post-surgical pain in rats; assay type: in vivo; conditions: 4 hours after the incision, IT acetaminophen 200 μg, chloroprocaine 3% 20 μL; for pain threshold following mechanical stimulation: individual animals
Description: The efficacy of the acetaminophen supersaturated solution administered by spinal administration (IT) was tested with explorative experiments in a model of post-surgical pain in rats in combination with a solution of chloroprocaine 3%.
The post-surgical pain was induced by means of incision and subsequent suture of the subplantar region of the rear left paw, as described by Timothy J. Brennan (1996).
The pain threshold following mechanical stimulation (expressed in grams) was measured 4 hours after the incision. Complete reduction of the anaesthetic effect of the spinal chloroprocaine is expected within this period of time. The reduction of the pain threshold is considered to be an indicator of pain and hyperalgesia of the zone affected by surgical intervention.

[3] = Solubility of acetaminophen at 20° C.; assay type: physicochemical; conditions: water
[4] = test system: oedema at the site of inflammation induced by carrageenan; experiment: Development of oedema (paw volume), carrageenan model; assay type: in vivo, mice; conditions: for Paw volume (oedema): mice, individual animals
Description: The efficacy of the acetaminophen supersaturated solution administered by spinal administration (IT) was tested by means of explorative experiments in a model of inflammatory pain in mice, induced by means of intraplantar injection (injection in the rear left paw, referred to hereinafter as the “site of inflammation”) of carrageenan (50 μl 1%).
The development of oedema at the site of inflammation was measured and expressed as an increase of volume (mL) of the site of inflammation.
Spinal administration in the mouse was carried out as described by Fairbanks (2003).

| SMILES | recovery of walking and tension of the rear limbs [1] | effect on pain threshold / post-surgical pain [2] | pain threshold following mechanical stimulation [2] | solubility [3] | Paw volume (oedema) ([4]; 10 μg IT, 2 hours after carrageenan) | Paw volume (oedema) ([4]; 10 μg IT, 4 hours after carrageenan) | Paw volume (oedema) ([4]; 10 μg IT, 6 hours after carrageenan) | Paw volume (oedema) ([4]; 10 μg IT, 24 hours after carrageenan) | Paw volume (oedema) ([4]; 10 μg IT, basal) | Paw volume (oedema) ([4]; 100 μg IT, 2 hours after carrageenan) | Paw volume (oedema) ([4]; 100 μg IT, 4 hours after carrageenan) | Paw volume (oedema) ([4]; 100 μg IT, 6 hours after carrageenan) | Paw volume (oedema) ([4]; 100 μg IT, 24 hours after carrageenan) | Paw volume (oedema) ([4]; 100 μg IT, basal) | reduction of the development of oedema at the site of inflammation ([4]; 100 μg per mouse IT, first two hours following induction) |
| --- | --- | --- | --- | --- | --- | --- | --- | --- | --- | --- | --- | --- | --- | --- | --- |
| CCN(CC)CCOC(=O)c1ccc(N)cc1Cl [Chloroprocaine, chloroprocaine] | complete recovery in terms of walking and tension of the rear limbs | did not change the pain threshold | 23.60 grams and 22.75 grams and 19.75 grams and 24.25 grams |  |  |  |  |  |  |  |  |  |  |  |  |
| CC(=O)Nc1ccc(O)cc1 [Acetaminophen, acetyl-p-aminophenol] |  |  | 22.75 grams and 24.90 grams and 24.00 grams and 28.00 grams and 38.75 grams | ~13 mg/mL (≈ 86 mM) | 0.43 mL and 0.36 mL (2×) and 0.38 mL and 0.37 mL (2×) and 0.44 mL | 0.39 mL and 0.36 mL and 0.34 mL and 0.38 mL and 0.44 mL (2×) and 0.41 mL | 0.44 mL and 0.38 mL and 0.33 mL (2×) and 0.37 mL and 0.45 mL and 0.36 mL | 0.47 mL and 0.4 mL and 0.46 mL and 0.37 mL and 0.5 mL and 0.42 mL (2×) | 0.29 mL (2×) and 0.24 mL and 0.2 mL and 0.21 mL and 0.26 mL and 0.22 mL | 0.32 mL and 0.34 mL and 0.33 mL (3×) and 0.37 mL and 0.36 mL | 0.35 mL (2×) and 0.37 mL and 0.38 mL (2×) and 0.36 mL and 0.34 mL | 0.38 mL (2×) and 0.4 mL (2×) and 0.39 mL and 0.43 mL and 0.35 mL | 0.33 mL and 0.41 mL and 0.42 mL and 0.44 mL and 0.47 mL and 0.45 mL and 0.46 mL | 0.27 mL and 0.28 mL and 0.29 mL and 0.24 mL and 0.26 mL and 0.25 mL and 0.18 mL | approximately 20% |
